Data from patent EP0378317A2, “Microbial transformation product of L-679,934” (Merck & Co., Inc., priority 1989, dated 1990).
“Also recorded” adds a separate entry of the source. Like-named read-outs stand apart in the source and are kept apart here. Each block holds one molecule with its values, some of them ahead of it.

What was measured:
mouse T lymphocytes = experiment: T-cell proliferation assay (ionomycin plus PMA induced T-cell stimulation, tritiated thymidine uptake); assay type: cell-based; conditions: for IC50: read-out: IC₅₀
Method: The principle of this assay is to measure the proliferation of mouse T lymphocytes stimulated with the combination of ionomycin plus PMA. A positive sample in this assay will inhibit T-cell proliferation, as indicated by reduced tritiated thymidine uptake. […] Cells were pelleted by centrifugation at 1500 rpm for 8 minutes. Contaminating red cells were removed by treating the pellet with ammonium chloride lysing buffer (GIBCO) for 2 minutes at 4°C. Cold medium was added and cells were again centrifuged at 1500 rpm for 8 minutes. T lymphocytes were then isolated by separation of the cell suspension on nylon wool columns as follows: Nylon wool columns were prepared by packing approximately 4 grams of washed and dried nylon wool into 20 ml plastic syringes. The columns were sterilized by autoclaving at 250°F for 30 minutes. Nylon wool columns were wetted with warm (37°C) culture medium and rinsed with the same medium. Washed spleen cells resuspended in warm medium were slowly applied to the nylon wool. The columns were then incubated in an upright position at 37°C for 1 hour. Non-adherent T lymphocytes were eluted from the columns with warm culture medium and the cell suspensions were spun as above. […] The cell suspension was immediately distributed into 96 well flat-bottom microculture plates (Costar) at 200 µl/well. […] The proliferation of T lymphocytes was assessed by measurement of tritiated thymidine incorporation. After 44 hours of culturing, the cells were pulse-labelled with 2 µCi/well of tritiated thymidine (NEN, Cambridge, MA). After another 4 hours of incubation, cultures were harvested on glass fiber filters using a multiple sample harvester. Radioactivity of filter discs corresponding to individual wells was measured by standard liquid scintillation counting methods (Betacounter). Mean counts per minute of replicate wells were calculated and the results expressed as percent inhibition of tritiated thymidine uptake (proliferation) as follows: [formula]

[1] = Physical characteristics of the fermentation product; assay type: physicochemical; conditions: methanol
Description: White amorphous powder • 2. […] Molecular weight of 789, as determined by FAB mass spectroscopy and is consistent with the assigned molecular structure in Figure 1.

SMILES: C=CC[C@@H]1/C=C(\C)C[C@H](C)C[C@H](OC)[C@H]2O[C@@](O)(C(=O)C(=O)N3CCCC[C@H]3C(=O)O[C@H](/C(C)=C/[C@@H]3CC[C@@H](O)[C@H](OC)C3)[C@H](C)[C@@H](O)CC1=O)[C@H](C)C[C@@H]2OC [L-679,934]
- inhibition at 0.01 µg/mL (mouse T lymphocytes; Mus musculus, T-lymphocyte, 48 h): 99%

- Solubility [1]: Solubility in methanol
SMILES: C=CCC1C=C(C)CC(C)CC(OC)C(O)C2CC(C)C(O)(O2)C(=O)C(=O)N2CCCCC2C(=O)OC(C(C)=CC2CCC(O)C(OC)C2)C(C)C(O)CC1=O [L-683,519]
- IC50 (mouse T lymphocytes; Mus musculus, T-lymphocyte, inhibition of T-cell proliferation, this experiment, same value in molar terms): 2.2 nM
- IC50 (mouse T lymphocytes; Mus musculus, T-lymphocyte, inhibition of T-cell proliferation, this experiment): 1.7 ng/mL
- IC50 (mouse T lymphocytes; Mus musculus, T-lymphocyte, range generally found): 2 to 4 nM
- inhibition at 0.00058 µg/mL (mouse T lymphocytes; Mus musculus, T-lymphocyte, L-683,519 0.58 ng/ml, harvest at 48 hours): 0%
- inhibition at 0.00087 µg/mL (mouse T lymphocytes; Mus musculus, T-lymphocyte, L-683,519 0.87 ng/ml, harvest at 48 hours): 0%
- inhibition at 0.0013 µg/mL (mouse T lymphocytes; Mus musculus, T-lymphocyte, L-683,519 1.3 ng/ml, harvest at 48 hours): 30%
- inhibition at 0.0019 µg/mL (mouse T lymphocytes; Mus musculus, T-lymphocyte, L-683,519 1.9 ng/ml, harvest at 48 hours): 57%
- inhibition at 0.0029 µg/mL (mouse T lymphocytes; Mus musculus, T-lymphocyte, L-683,519 2.9 ng/ml, harvest at 48 hours): 81%
- inhibition at 0.0044 µg/mL (mouse T lymphocytes; Mus musculus, T-lymphocyte, L-683,519 4.4 ng/ml, harvest at 48 hours): 93%
- inhibition at 0.0066 µg/mL (mouse T lymphocytes; Mus musculus, T-lymphocyte, L-683,519 6.6 ng/ml, harvest at 48 hours): 97%
- inhibition at 0.0099 µg/mL (mouse T lymphocytes; Mus musculus, T-lymphocyte, L-683,519 9.9 ng/ml, harvest at 48 hours): 99%
- inhibition at 0.015 µg/mL (mouse T lymphocytes; Mus musculus, T-lymphocyte, L-683,519 15.0 ng/ml, harvest at 48 hours): 99%
- inhibition at 0.022 µg/mL (mouse T lymphocytes; Mus musculus, T-lymphocyte, L-683,519 22.0 ng/ml, harvest at 48 hours): 99%
- inhibition at 0.033 µg/mL (mouse T lymphocytes; Mus musculus, T-lymphocyte, L-683,519 33.0 ng/ml, harvest at 48 hours): 99%
- inhibition at 0.05 µg/mL (mouse T lymphocytes; Mus musculus, T-lymphocyte, L-683,519 50.0 ng/ml, ionomycin 250 ng/ml + PMA 10 ng/ml, ³H-thymidine pulse 4 hours, harvest at 48 hours): 99%
- Inhibition of proliferation after addition of IL-2 (mouse T lymphocytes; addition of 50 units/ml. of recombinant human IL-2): 4. Inhibition of proliferation was reversed by the addition of 50 units/ml. of recombinant human IL-2.
- inhibition of T-cell activation (immunosuppressive activity) (mouse T lymphocytes; result in words): positive inhibition of T-cell activation; also recorded: positive immunosuppressive activity
